Values quoted from earlier work, collected in patent US8617286B2, “Method for increasing crop yield” (priority 2010, dated 2013).

Test system: nitrification of ammonia nitrogen into nitrate
Conditions: general statement, no test described

SMILES: N#CN=C(N)N [DCD, dicyandiamide]
- slowing of nitrification of ammonia nitrogen into nitrate: about 80%
